Laboratory results reported in article PMC2099433, “The binding site for neohesperidin dihydrochalcone at the human sweet taste receptor” (BMC Structural Biology, 2007).
Residue numbers refer to the chain shown, from its start. Where a SMILES comes first, the peptide text is derived from it.

How the values were obtained:
[1] = molecular target: T1, hTAS1R2 + hTAS1R3 R725M^5.38 (Homo sapiens, UniProt Q7RTX0+Q8TE23, R725M); assay: Calcium response (FLIPR), hTAS1R3 mutant coexpressed with hTAS1R2; assay type: cell-based; details: variant R725M^5.38; for Emax: read-out: maximal signal (% of wt)
T1 construct: expressed in transfected cells; host or cells: HEK293T cells stably expressing G16Gust44
T1 sequence (Q7RTX0 21-852 R725M): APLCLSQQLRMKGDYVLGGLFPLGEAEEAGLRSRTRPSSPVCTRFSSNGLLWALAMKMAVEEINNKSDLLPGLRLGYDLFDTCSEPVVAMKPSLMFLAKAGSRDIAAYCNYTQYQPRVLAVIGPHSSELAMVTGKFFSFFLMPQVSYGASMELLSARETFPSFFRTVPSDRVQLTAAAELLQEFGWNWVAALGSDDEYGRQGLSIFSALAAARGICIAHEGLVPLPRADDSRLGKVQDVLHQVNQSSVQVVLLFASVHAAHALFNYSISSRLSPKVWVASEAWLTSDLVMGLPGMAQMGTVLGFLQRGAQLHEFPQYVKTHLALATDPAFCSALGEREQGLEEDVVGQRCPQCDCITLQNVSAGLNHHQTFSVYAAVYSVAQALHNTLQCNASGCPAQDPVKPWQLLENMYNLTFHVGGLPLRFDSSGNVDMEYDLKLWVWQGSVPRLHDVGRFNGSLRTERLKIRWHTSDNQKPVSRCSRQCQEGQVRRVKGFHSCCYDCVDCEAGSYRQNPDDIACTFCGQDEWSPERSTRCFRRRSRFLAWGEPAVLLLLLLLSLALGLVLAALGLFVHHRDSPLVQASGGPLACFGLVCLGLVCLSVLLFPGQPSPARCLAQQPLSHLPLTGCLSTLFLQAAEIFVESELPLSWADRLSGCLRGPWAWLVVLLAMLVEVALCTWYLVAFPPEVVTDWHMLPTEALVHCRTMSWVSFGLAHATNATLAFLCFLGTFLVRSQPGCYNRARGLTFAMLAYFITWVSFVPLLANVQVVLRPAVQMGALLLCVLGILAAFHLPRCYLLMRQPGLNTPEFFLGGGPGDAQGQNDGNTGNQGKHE
T1 sequence (Q8TE23 20-839): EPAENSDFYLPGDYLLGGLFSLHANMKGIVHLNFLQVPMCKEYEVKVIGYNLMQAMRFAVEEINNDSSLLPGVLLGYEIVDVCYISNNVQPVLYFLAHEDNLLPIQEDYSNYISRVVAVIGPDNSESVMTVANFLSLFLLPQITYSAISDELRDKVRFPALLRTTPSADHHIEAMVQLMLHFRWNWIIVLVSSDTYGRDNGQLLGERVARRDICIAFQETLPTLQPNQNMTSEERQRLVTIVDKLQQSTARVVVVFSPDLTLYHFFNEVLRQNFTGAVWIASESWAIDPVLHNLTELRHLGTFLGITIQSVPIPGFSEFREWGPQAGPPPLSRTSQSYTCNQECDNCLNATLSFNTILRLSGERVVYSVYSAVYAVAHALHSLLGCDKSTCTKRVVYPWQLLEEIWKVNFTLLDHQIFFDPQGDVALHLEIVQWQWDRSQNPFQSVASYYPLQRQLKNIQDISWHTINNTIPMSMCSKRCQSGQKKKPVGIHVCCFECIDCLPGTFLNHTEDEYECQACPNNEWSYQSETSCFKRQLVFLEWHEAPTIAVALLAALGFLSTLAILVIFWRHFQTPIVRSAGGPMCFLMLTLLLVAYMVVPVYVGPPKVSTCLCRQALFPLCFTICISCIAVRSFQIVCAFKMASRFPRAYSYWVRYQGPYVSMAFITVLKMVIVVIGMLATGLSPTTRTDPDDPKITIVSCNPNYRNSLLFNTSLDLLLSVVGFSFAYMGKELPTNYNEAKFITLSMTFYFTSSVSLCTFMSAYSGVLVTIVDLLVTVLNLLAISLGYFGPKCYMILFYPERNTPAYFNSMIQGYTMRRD
Procedure, shortened: (§1)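 HEK293T cells stably expressing chimeric G16Gust44 were transiently transfected with C-terminally HSV-tagged hTAS1R2 and mutant hTAS1R3, then loaded 24 h later with Fluo4-AM for 1 h. Calcium mobilization after sweet-tastant application was read by FLIPR, mock-corrected and expressed as ΔF/F.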

[2] = molecular target: T2, hTAS1R2 + hTAS1R3 F624L^2.61 (Homo sapiens, UniProt Q7RTX0+Q8TE23, F624L); assay: as above; assay type: cell-based; details: variant F624L^2.61; for EC50: (>) EC50 not calculable because saturation is not reached; for Emax: read-out: maximal signal (% of wt)
T2 construct: expressed in transfected cells; host or cells: HEK293T cells stably expressing G16Gust44
T2 sequence (Q8TE23 20-839): T1 sequence (Q8TE23 20-839)
T2 sequence (Q7RTX0 21-852 F624L): T1 sequence (Q7RTX0 21-852 R725M) with F604L, M705R
Procedure, shortened: as §1

Compound	EC50 [1] [mM]	Emax [1] [%]	EC50 [2] [mM]	Emax [2] [%]
COc1ccc(CCC(=O)c2c(O)cc(O[C@@H]3O[C@H](CO)[C@@H](O)[C@H](O)[C@H]3O[C@@H]3O[C@@H](C)[C@H](O)[C@@H](O)[C@H]3O)cc2O)cc1O [NHDC, neohesperidin dihydrochalcone]	1.3 ± 0.4	64 ± 14	> 1	35 ± 70
COC(=O)[C@H](Cc1ccccc1)NC(=O)[C@@H](N)CC(=O)O [aspartame] (HELM PEPTIDE1{D.F.[CO[*:1]]}$$$$V2.0)	1.5 ± 0.7	56 ± 1	1.4 ± 0.2	21 ± 4
